From the NIST ThermoML archive (doi:10.1016/j.fluid.2015.09.038)
± gives the expanded uncertainty stated by the source.

Key:
[1] = Molar enthalpy of transition or fusion; conditions: Crystal; DSC
[2] = Crystal; DTA

| SMILES | Molar enthalpy of transition or fusion [1] | Normal melting temperature [2] |
| --- | --- | --- |
| CCCCCCCCCCCC(=O)OCC [ethyl dodecanoate] | 9.15 ± 1.84 kcal/mol | -0.92 ± 2 °C |
| CCCCCCCCCCCCC1CCCCC1 [dodecylcyclohexane] | 10.8 ± 2.17 kcal/mol | 13.63 ± 2 °C |
| CCCCCCCCCCCCCCCC(=O)OCC [ethyl hexadecanoate] | 12.7 ± 4.78 kcal/mol | 24.78 ± 2 °C |
